From ChEMBL document CHEMBL5226361, “Marine Sponge-Derived Alkaloid Induces Mitochondrial Dysfunction and Inhibits the PI3K/AKT/mTOR Signaling Pathway against Burkitt's Lymphoma” (J Nat Prod, 2023) come the findings set out here.

Activity calls are given as the source filed them. No cut-off for these calls is given here.

Test [1] concerns Daudi. Description: Induction of apoptosis in human Daudi cells assessed as effect on caspase-8 protein expression at 0.75 to 3 uM incubated for 24 hrs by Western blot analysis. The settings on record: dose 0.75-3 µM. It counts as functional, cell-based. On the technique in general: In western blotting, separated proteins are transferred to a membrane and probed.
Test [2] deals with Raji. Description: Induction of apoptosis in human Raji cells assessed as late apoptotic cells at 5 uM incubated for 24 hrs in the presence of YS49 by Annexin V-FITC/PI staining based flow cytometric analysis (reference value: 0.0%). It counts as functional.
Test [3] in a line: Inhibition of PI3K/AKT/mTOR signalling pathway in human Daudi cells assessed as inhibition of AKT phosphorylation at […] residue incubated for 24 hrs by Western blot analysis. It counts as cell-based. To be noted: dose 0.75-3 µM.
In test [4] the test system is Raji. Description: Downregulation of c-Myc expression level in human Raji cells incubated for 24 hrs by Western blot analysis. The format is functional, cell-based. The settings on record: dose 1.25-5 µM.
For test [5], the system named is Daudi. Description: Induction of apoptosis in human Daudi cells assessed as effect on cleaved caspase-8 protein expression at 0.75 to 3 uM incubated for 24 hrs by Western blot analysis. The format is functional, cell-based. The settings on record: dose 0.75-3 µM.
Test [6] has as its system Daudi. Description: Induction of apoptosis in human Daudi cells assessed as necrotic cells at 3 uM incubated for 24 hrs by Annexin V-FITC/PI staining based flow cytometric analysis (reference value: 1.0%). It counts as functional. Background: In flow cytometry, cells or beads pass a laser one at a time.
The subject of test [7] is Daudi. Description: Induction of mitochondrial respiratory chain damage in human Daudi cells assessed as decrease in CYC1 protein expression at 1.5 to 3 uM incubated for 48 hrs by Western blot analysis. It counts as functional, cell-based. The settings on record: dose 1.5-3 µM.
Test [8] has as its system Daudi. Description: Induction of apoptosis in human Daudi cells assessed as viable cells at 3 uM incubated for 24 hrs in the presence of YS49 by Annexin V-FITC/PI staining based flow cytometric analysis (reference value: 97.2%). To be noted: read-out: Activity. The format is functional.
Test [9] has as its system Daudi. Description: Effect on total mTOR protein level in human Daudi cells at 0.75 to 3 uM incubated for 24 hrs by Western blot analysis. It counts as functional, cell-based. To be noted: dose 0.75-3 µM.
Test [10] deals with Raji. Description: Induction of apoptosis in human Raji cells assessed as upregulation of cytochrome C expression at 1.25 to 5 uM incubated for 24 hrs by Western blot analysis. The format is functional, cell-based. The settings on record: dose 1.25-5 µM.
In test [11] the test system is Raji. Description: Induction of mitochondrial respiratory chain damage in human Raji cells assessed as decrease in CYC1 protein expression at 2.5 to 5 uM incubated for 48 hrs by Western blot analysis. It counts as functional, cell-based. The settings on record: dose 2.5-5 µM.
Test [12] deals with Raji. Description: Induction of apoptosis in human Raji cells assessed as upregulation of cleaved caspase-3 expression at 1.25 to 5 uM incubated for 24 hrs by Western blot analysis. The format is functional, cell-based. To be noted: dose 1.25-5 µM.
The subject of test [13] is Daudi. Description: Induction of mitochondrial respiratory chain damage in human Daudi cells assessed as decrease in SDHA protein expression at 1.5 to 3 uM incubated for 48 hrs by Western blot analysis. The format is functional, cell-based. To be noted: dose 1.5-3 µM.
For test [14], the system named is Raji. Description: Induction of apoptosis in human Raji cells assessed as upregulation of cleaved caspase-9 expression at 1.25 to 5 uM incubated for 24 hrs by Western blot analysis. To be noted: dose 1.25-5 µM. It counts as functional, cell-based.
A short description of test [15]: Inhibition of PI3K/AKT/mTOR signalling pathway in human Raji cells assessed as inhibition of mTOR phosphorylation incubated for 24 hrs by Western blot analysis. It counts as cell-based. The settings on record: dose 1.25-5 µM.
Test [16] deals with Daudi. Description: Induction of apoptosis in human Daudi cells assessed as total apoptotic cells at 3 uM incubated for 24 hrs by Annexin-V/PI staining based flow cytometric analysis relative to control. The format is functional.
Test [17] is described as follows: Inhibition of PI3K/AKT/mTOR signalling pathway in human Daudi cells assessed as inhibition of PI3K phosphorylation incubated for 24 hrs by Western blot analysis. The settings on record: dose 0.75-3 µM. It counts as cell-based.
Test [18] relates to Daudi. Description: Induction of cell cycle arrest in human Daudi cells assessed as accumulation of cells at G0/G1 phase at 3 uM incubated for 24 hrs by PI staining based flow cytometry analysis (reference value: 24.28%). It counts as functional.
For test [19], the system named is Daudi. Description: Induction of apoptosis in human Daudi cells assessed as upregulation of cleaved caspase-3 expression at 0.75 to 3 uM incubated for 24 hrs by Western blot analysis. The format is functional, cell-based. The settings on record: dose 0.75-3 µM.
For test [20], the system named is Daudi. Description: Induction of mitochondrial dysfunction in human Daudi cells assessed as decrease in ATP-5J protein expression at 1.5 to 3 uM incubated for 48 hrs by Western blot analysis. The format is functional, cell-based. To be noted: dose 1.5-3 µM.
For test [21], the system named is Daudi. Description: Induction of cell cycle arrest in human Daudi cells assessed as G2 phase cells at 3 uM incubated for 24 hrs by PI staining based flow cytometry analysis (reference value: 25.92%). It counts as functional.
The subject of test [22] is Daudi. Description: Induction of apoptosis in human Daudi cells assessed as early apoptotic cells at 3 uM incubated for 24 hrs in the presence of YS49 by Annexin V-FITC/PI staining based flow cytometric analysis (reference value: 1.7%). The format is functional.

As to `COc1c(OC)c2c3c(nccc3c1-c1cc(C)cc(C)c1)C(c1cc(C)cc(C)c1)=CN2`, the result in the test with Daudi [1], in the test with Daudi [5] and in the test on Daudi [9] was inactive. In addition, the Activity in the test on Raji [2] was 0.9%; in the test with Raji [4] it was “Dose-Dependent Effect”; in the test with Daudi [6] it was 2.2%; in the test with Daudi [16], 21.6%; in the test on Daudi [18] it was 49.7%; in the test with Daudi [21] it was 20.27%. Further, the Activity with Daudi [22] is listed as 16.7%. The inhibition entry in [3], in test [15] and in [17] was “Dose-Dependent Effect” throughout. Also, the result with Daudi [7], with Raji [10], with Raji [11], in the test with Raji [12], in the test with Daudi [13] and in the test on Raji [14] was Active. In addition, the outcome in the test on Daudi [19] and in the test on Daudi [20] was Active. The viability at 3 µM in the test on Daudi [8] was 80.2%.
